Measured values reported in the NIST ThermoML archive (doi:10.1021/je800330d).

Columns and labels:
[1] = mn = molality of the nth substance listed, in mol/kg; conditions: 101 kPa, Liquid, Capillary tube (Ostwald / Ubbelohde) method
[2] = xn = mol fraction of the nth substance listed; conditions: 101 kPa, Liquid, Capillary tube (Ostwald / Ubbelohde) method
[3] = 101 kPa, Liquid, Capillary tube (Ostwald / Ubbelohde) method

O=S(=O)([O-])[O-].O=S(=O)([O-])[O-].O=S(=O)([O-])[O-].[Al+3].[Al+3] [aluminum sulfate] + O
viscosity [mPa·s], [1]
Conditions | m1 = 0.0081 | m1 = 0.0099 | m1 = 0.0201 | m1 = 0.0402 | m1 = 0.0599 | m1 = 0.0802 | m1 = 0.1
298.15 K | 0.904 | 0.908 | 0.927 | 0.967 | 1.008 | 1.05 | 1.093
308.15 K | 0.729 | 0.732 | 0.747 | 0.777 | 0.807 | 0.839 | 0.87

N.N.O=S(=O)(O)O [ammonium sulfate] + O
viscosity [mPa·s], [1]
Conditions | m1 = 0.0081 | m1 = 0.0099 | m1 = 0.0201 | m1 = 0.0402 | m1 = 0.0599 | m1 = 0.0802 | m1 = 0.1
298.15 K | 0.897 | 0.898 | 0.902 | 0.908 | 0.913 | 0.918 | 0.922
308.15 K | 0.725 | 0.726 | 0.729 | 0.735 | 0.74 | 0.744 | 0.748

CN(C)C=O [dimethylformamide] + O
viscosity [mPa·s], [2]
Conditions | x1 = 0.05 | x1 = 0.1 | x1 = 0.15 | x1 = 0.2
298.15 K | 1.002 | 1.126 | 1.258 | 1.391
308.15 K | 0.797 | 0.891 | 0.984 | 1.08

O=S(=O)([O-])[O-].[K+].[K+] [potassium sulfate] + O
viscosity [mPa·s], [1]
Conditions | m1 = 0.0081 | m1 = 0.0099 | m1 = 0.0201 | m1 = 0.0402 | m1 = 0.0599 | m1 = 0.0802 | m1 = 0.1
298.15 K | 0.895 | 0.896 | 0.899 | 0.905 | 0.909 | 0.914 | 0.918
308.15 K | 0.723 | 0.724 | 0.727 | 0.732 | 0.737 | 0.742 | 0.746

O [water]
[3]
Conditions | viscosity [mPa·s]
298.15 K | 0.89
308.15 K | 0.719
